PMC9926234, “Iterative computational design and crystallographic screening identifies potent inhibitors targeting the Nsp3 macrodomain of SARS-CoV-2” (Proceedings of the National Academy of Sciences of the …, 2023)
Values joined by “and” are separate entries in the source; they are usually repeats but may differ in a detail not shown here. Equal values may be shown once. Read-outs that look alike come from different tables or passages of the source.

Assays:
[1] = test system: P-glycoprotein (human MDR1); test: MDR1-MDCK II cell permeability; conditions: dog, MDCK-MDR1, pH 7.4
[2] = target: T1, SARS-CoV-2 NSP3 Mac1 (Severe acute respiratory syndrome coronavirus 2, UniProt P0DTD1); test: biochemical; format: binding; conditions: for IC50: read-out: IC50; for Ki: read-out: Ki***
[3] = target: T1, SARS-CoV-2 NSP3 Mac1; format: binding; conditions: for Refined occupancy: ligand occupancy after refinement (phenix.refine); for HIT*: true hit = binding in crystallographic soaking or the HTRF-based binding assay
[4] = target: T2, TARG1 (Homo sapiens, UniProt Q9Y530); test: adapted HTRF-based peptide displacement assay (off-target); format: binding; conditions: for selectivity for viral Mac1 over human macrodomain: versus TARG1, in words
T2 construct: Targ1_HTRF; HTRF assay; pET22b(+); His6, TEV; 1-153; made in house
T2 sequence (Q9Y530 with tags, fused parts or gaps): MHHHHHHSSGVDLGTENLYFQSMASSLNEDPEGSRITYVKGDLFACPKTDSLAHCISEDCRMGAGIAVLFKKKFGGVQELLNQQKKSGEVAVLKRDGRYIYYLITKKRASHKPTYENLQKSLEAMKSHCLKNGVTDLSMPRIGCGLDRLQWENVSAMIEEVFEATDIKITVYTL

[5] = target: T1, SARS-CoV-2 NSP3 Mac1; format: binding; design: contains a conserved macrodomain enzyme (Mac1); conditions: for Spearman est (compound concentration vs apparent Tm): DSF dose responsiveness, 1 µM nsp3 mac1, adj p given; for DSF max dTma: maximal thermal upshift
Procedure, shortened: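 ΔTma values are thermal shifts relative to a co-located DMSO-only control, read with 5 µM Fluorescent Yellow dye. Each compound was tested in triplicate over seven concentrations (two-fold steps, top 1,000 or 100 μM). Spearman correlation of concentration versus ΔTma tested whether the shift was dose-responsive.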

[6] = target: T3, MacroD2 (Homo sapiens, UniProt A1Z1Q3); test: adapted HTRF-based peptide displacement assay (off-target); format: binding; conditions: for selectivity for viral Mac1 over human macrodomain: versus MacroD2, in words
T3 construct: MacroD2_HTRF; HTRF assay; pET22b(+); His6, TEV, Avi; made in house
T3 sequence (A1Z1Q3 with tags, fused parts or gaps): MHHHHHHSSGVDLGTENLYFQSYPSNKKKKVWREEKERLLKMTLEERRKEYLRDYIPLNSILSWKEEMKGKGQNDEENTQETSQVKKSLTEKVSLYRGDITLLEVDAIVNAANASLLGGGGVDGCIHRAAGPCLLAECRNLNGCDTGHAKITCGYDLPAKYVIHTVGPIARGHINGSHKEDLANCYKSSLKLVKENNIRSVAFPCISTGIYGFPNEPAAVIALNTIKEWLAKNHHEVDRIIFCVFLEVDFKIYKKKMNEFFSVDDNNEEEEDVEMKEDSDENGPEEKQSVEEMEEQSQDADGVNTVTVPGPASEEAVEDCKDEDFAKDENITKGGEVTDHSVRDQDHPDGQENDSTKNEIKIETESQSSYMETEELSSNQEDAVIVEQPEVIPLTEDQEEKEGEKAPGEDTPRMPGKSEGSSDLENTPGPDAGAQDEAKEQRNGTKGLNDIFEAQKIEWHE

[7] = test system: MDR1-MDCKII cells; test: MDR1-MDCK II cell permeability; conditions: MDR1-MDCKII cells
[8] = target: T1, SARS-CoV-2 NSP3 Mac1; design: contains a conserved macrodomain enzyme (Mac1); differential scanning fluorimetry, maximum thermal upshift; conditions: binder
[9] = test system: P-glycoprotein (human MDR1); test: in vitro; conditions: dog, MDCK-MDR1, pH 7.4
[10] = target: T1, SARS-CoV-2 NSP3 Mac1; test: biochemical; design: HTRF ADPr-peptide displacement assay with Mac1, dose-response IC50; conditions: read-out: IC50 [µM] / 0.5, 1.2, 1.4
[11] = target: T1, SARS-CoV-2 NSP3 Mac1; design: contains a conserved macrodomain enzyme (Mac1); Differential scanning fluorimetry of Mac1, maximum thermal upshift; conditions: maximum shift over tested concentrations; binder
[12] = test system: SARS-CoV-2 NSP3 Mac1; test: Overall hit call (binding in crystallographic soaking or the HTRF-based binding assay)
Excerpt: Supplement pnas.2212931120.sd01.xlsx, sheet "Compound Summary" | column: HIT*

[13] = target: T1, SARS-CoV-2 NSP3 Mac1; design: method as in PMID 33853786; conditions: cited from earlier work
[14] = HTRF ADPr-peptide displacement from SARS-CoV-2 Mac1
[15] = Ki estimation from HTRF-derived IC50, Cheng-Prusoff, peptide 400nM, Kd 2.68µM
[16] = PanDDA 1-BDC value of the event, crystal soak, compound concentration 100 mM, per dataset
[17] = PanDDA event map, 1 minus background density correction, crystal soaking of Mac1
[18] = crystal soak, compound concentration 100 mM, per dataset
[19] = PanDDA event map background density correction, crystal soak, compound concentration 100 mM
[20] = PanDDA event map, crystal soak, Compound_concentration 100 mM, Echo_dispense_volume 40 nl
[21] = crystal soak, Compound_concentration 100 mM, Echo_dispense_volume 40 nl, PanDDA run (background map) dmso_34, nohits_35 or nohits_62
[22] = ligand modeled in the crystal structure, crystal soak, compound concentration 100 mM

CC(C(=O)O)c1cccc(C(=O)c2ccccc2)c1 (stereo not drawn) [Ketoprofen]
Papp A→B at 90 min, 10 µM [1]: 17.6 ± 2.5 ×10⁻⁶ cm/s
Papp B→A at 90 min, 10 µM [1]: 16.1 ± 0.5 ×10⁻⁶ cm/s

O=C(O)C1(F)CN(c2ncnc3[nH]c4cc(F)ccc4c23)CC12CCC2 (stereo not drawn) [LL1_0023]
IC50 [2, 14]: 6 to 10 µM and 5.8 to 10.9 µM
IC50 ([2]; HTRF): 5.8 µM and 10.9 µM
Ki [2, 15]: 5 µM and 9.5 µM
1-BDC [3, 16]: 0.28
1-BDC (PanDDA) [3, 17]: 0.16
PanDDA hit? [3, 18]: TRUE
Modeled? ([3]; ligand modeled from this dataset, compound concentration 100 mM): TRUE
Refined occupancy ([3]; crystal soaking of Mac1): 32
HIT* [3]: Y
displacement of the ADPr-conjugated peptide (off-target activity) ([4]; compound at 50 µM): active
displacement of the ADPr-conjugated peptide (off-target activity) ([4]; compound at 1 mM): 50%
Spearman est (compound concentration vs apparent Tm) [5]: 0.98
DSF max dTma [5]: 4.53 ˚C
displacement of the ADPr-conjugated peptide (off-target activity) ([6]; compound at 1 mM): 50%
permeability relative to the Z8539 scaffold [7]: 3 fold

O=C(c1cn[nH]c(=O)c1)N1CCC(CF)(C(=O)O)C1 (stereo not drawn) [R8407, REAL250001448407]
DSF max dTma [8]: 0 degC

Nc1ncnc2c1ncn2Cc1ccc(Cl)cn1 [Z0078, ZINC000559260078]
DSF max dTma [8]: 0.98 degC

Nc1ncnc2c1ncn2Cc1cccc(C(F)(F)F)c1 [Z0893, ZINC000110510893]
DSF max dTma [8]: 0.5 degC

CC(CSc1nnc2[nH]cnn12)c1ccccc1 (stereo not drawn) [Z3280, ZINC000920153280]
DSF max dTma [8]: 0 degC

Nc1ncnc2c1ncn2Cc1cc(-c2ccco2)on1 [Z4827, ZINC000681764827]
DSF max dTma [8]: 0.63 degC

O=C(NC1c2cccc(O)c2CC1C(=O)O)c1ccc2[nH]c(CO)nc2c1 (stereo not drawn) [Z8539_0002]
Papp A→B [9]: 0.8 ± 0.2 ×10⁻⁶ cm/s
Papp B→A [9]: 1.4 ± 1 ×10⁻⁶ cm/s
IC50 [2, 14]: 1.3 to 6.7 µM
IC50 ([2]; HTRF): 1.3 µM and 6.7 µM
Ki [2, 15]: 1.1 µM and 5.8 µM
1-BDC [3, 16]: 0.26
1-BDC [3, 19]: 0.19
1-BDC [3, 17]: 0.29
1-BDC (PanDDA) [3, 17]: 0.19
1-BDC [3, 20]: 0.29
PanDDA hit? [3, 21]: TRUE
PanDDA hit? [3, 18]: TRUE
Modeled? ([3]; ligand modeled from this dataset, compound concentration 100 mM, Echo dispense volume 40 or 80 nl): TRUE
Modeled? [3, 22]: TRUE
HIT* [3]: Y
selectivity for viral Mac1 over human macrodomain [4]: selective for viral Mac1
Spearman est (compound concentration vs apparent Tm) [5]: 0.74
DSF max dTma [5]: 5.39 ˚C
selectivity for viral Mac1 over human macrodomain [6]: selective for viral Mac1

O=C(NC1c2cccc(O)c2CC1C(=O)O)c1cnc2c(c1)CCCN2 (stereo not drawn) [Z8539_0006, 8539_0006]
DSF max dTma [8]: 0 degC
IC50 [10]: 168 µM

O=C(NC1c2cccc(O)c2CC1C(=O)O)c1cnc(NC2CCOCC2)cn1 (stereo not drawn) [Z8539_0007, 8539_0007]
IC50 [10]: 6.4 µM
DSF max dTma [11]: 3.42 °C

O=C(NC1c2cccc(O)c2CC1C(=O)O)c1ccc(NCC2CC2)nc1 (stereo not drawn) [Z8539_0009, 8539_0009]
IC50 [10]: 17.1 µM
DSF max dTma [11]: 2.03 °C

O=C1COc2cc(C(=O)NC3c4cccc(O)c4CC3C(=O)O)ccc2N1 (stereo not drawn) [Z8539_0014, 8539_0014]
IC50 [10]: 27.9 µM
DSF max dTma [11]: 1.83 °C

O=C(Nc1ccc(C(=O)NC2c3ccccc3CC2C(=O)O)cc1)NC1CC1 (stereo not drawn) [Z8539_0029, 8539_0029]
IC50 [10]: 4.8 µM
DSF max dTma [11]: 3.66 °C

O=C(Nc1ccc(C(=O)N[C@H]2c3ccccc3CC[C@H]2C(=O)O)cc1)NC1CC1 [Z8539_0030, 8539_0030]
IC50 [10]: 5.9 µM
DSF max dTma [11]: 4.92 °C

O=C(NC1c2cccc(O)c2CC1C(=O)O)c1ccc2[nH]cnc2c1 (stereo not drawn) [Z8539_2001]
Papp A→B [9]: 1.1 ± 0.1 ×10⁻⁶ cm/s
Papp B→A [9]: 0.5 ×10⁻⁶ cm/s
binding to Mac1 in the HTRF assay, result in words [2]: did not affect the binding affinity
IC50 ([2]; HTRF ADPr-conjugated peptide displacement): 5.4 µM
Ki [2]: 4.7 µM
HIT* [12]: Y
1-BDC [3, 19]: 0.23 and 0.42
1-BDC (PanDDA) [3, 17]: 0.23
1-BDC [3, 20]: 0.21
PanDDA hit? [3, 21]: TRUE
Modeled? [3, 22]: TRUE
Refined occupancy ([3]; crystal soaking of Mac1): 46
selectivity for viral Mac1 over human macrodomain [4]: selective for viral Mac1
selectivity for viral Mac1 over human macrodomain [6]: selective for viral Mac1

Nc1ncnc(N2CCC(Oc3ccncc3)C2)c1Cl (stereo not drawn) [Z9710, ZINC000302059710]
DSF max dTma [8]: 0 degC

Nc1ccc(C(=O)O)cc1 [ZINC920, 4-aminobenzoic acid]
binding to Mac1 in the fragment screen, result in words [13]: did not bind
